The record followed here is patent publication US20220041627A1, “PRODRUGS OF ANTI-CANCER AND ANTI-AUTOIMMUNE DISEASES THERAPEUTIC AGENTS, AND METHODS OF MAKING AND USE THEREOF” (UNIVERSITY OF MARYLAND, BALTIMORE, priority 2018, published 2022).

Molecules are shown by their SMILES.

For one data set, the system named is SF-539. Description: NCI-60 growth inhibition, SF-539. The data set is classed as cell-based, human. The source says:
(§1) The anticancer effects of compounds 1a-1b against 60 human cancer cell lines (the Developmental Therapeutics Program of NCI) were studied. The cell lines were derived from different cancer types including leukemia, non-small-cell lung cancer, colon cancer, CNS cancer, melanoma, ovarian cancer, renal cancer, prostate cancer, and breast cancer (Table 1; the assay protocol can be found at: https://dtp.cancer.gov/default.htm). Compound 1a caused over 50% growth inhibition for most tested cell lines. […] Without wishing to be bound by any particular theory, it is believed that the differences in the anticancer effects between compounds 1a and 1b may be due to the more favorable cell membrane permeability of the boronic ester 1a.

The subject of data set [1] is MCF7 cells pretreated with the ROS scavenger N-Acetyl-Cysteine (NAC). Description: Cell viability of MCF7 cells pretreated with ROS scavenger NAC. The data set is classed as cell-based, human. Particulars: 10 mM NAC, pre-incubation 2 hours. The protocol: FIG. 3 illustrates the effect of ROS on the activation of 1a-b. Cell viability assay of MCF7 cancer cells treated with varying concentrations of 1a-b in the presence of 10 mM NAC. Pre-incubation with this ROS scavenger was carried out for 2 hours. Data are presented as mean SD, n=4.
Cell Counting Kit-8 (CCK8, Dojingo) was used to carry out the cytotoxicity assessment of the prodrugs. Seeded cells were treated with varying compound concentrations for 48-72 h and the CCK8 kit was used to measure the cytotoxicity. For NAC experiments, this ROS scavenger was pre-incubated with the cells for 2 h and then co-incubated with the prodrugs for additional 48 hours unless otherwise noted.
The anticancer effects of new compounds 1a and 1b were tested using the breast cancer MCF7 cells and normal MEC1 cells (FIGS. 2A and 2B). […] These differential killing results highlight the specificity of new prodrugs 1a-1b for cancer cells over normal cells. […] To further verify the role of ROS in the drug release process, the MTT assays was performed, using MCF7 cells pretreated with the ROS scavenger N-Acetyl-Cysteine (NAC).

The subject of another data set is HOP-62. The data set can be described thus: NCI-60 growth inhibition, HOP-62. The data set is classed as cell-based, human.
Excerpt: as §1

A further data set concerns CAKI-1. The data set can be described thus: NCI-60 growth inhibition, CAKI-1. The data set is classed as cell-based, human.
Excerpt: as §1

The next data set has as its system HCC-2998. The data set can be described thus: NCI-60 growth inhibition, HCC-2998. The data set is classed as cell-based, human.
Excerpt: as §1

For the next data set, the system named is A498. Description: NCI-60 growth inhibition, A498. The data set is classed as cell-based, human.
Excerpt: as §1

The test system of the next data set is NCI/ADR-RES. The data set can be described thus: NCI-60 growth inhibition, NCI/ADR-RES. As to conditions: Ovarian Cancer NCI/ADR-RES, 48 h. The data set is classed as cell-based, human.
Excerpt: as §1

The next data set has as its system UACC-257. The data set can be described thus: NCI-60 growth inhibition, UACC-257. The data set is classed as cell-based, human.
Excerpt: as §1

Another data set has as its system SNB-19. Description: NCI-60 growth inhibition, SNB-19. The data set is classed as cell-based, human.
Excerpt: as §1

The next data set concerns DU-145. The data set can be described thus: NCI-60 growth inhibition, DU-145. The data set is classed as cell-based, human.
Excerpt: as §1

Another data set concerns MDA-MB-231/ATCC. The data set can be described thus: NCI-60 growth inhibition, MDA-MB-231/ATCC. The data set is classed as cell-based, human. As to conditions: Breast Cancer MDA-MB-231/ATCC, 48 h.
Excerpt: as §1

The subject of the next data set is TK-10. The data set can be described thus: NCI-60 growth inhibition, TK-10. The data set is classed as cell-based, human.
Excerpt: as §1

The test system of another data set is IGROV1. Description: NCI-60 growth inhibition, IGROV1. The data set is classed as cell-based, human.
Excerpt: as §1

A further data set has as its system U251. The data set can be described thus: NCI-60 growth inhibition, U251. The data set is classed as cell-based, human.
Excerpt: as §1

In the next data set the test system is T-47D. Description: NCI-60 growth inhibition, T-47D. As to conditions: Breast Cancer T-47D, 48 h. The data set is classed as cell-based, human.
Excerpt: as §1

The test system of a further data set is COLO 205. Description: NCI-60 growth inhibition, COLO 205. The data set is classed as cell-based, human.
Excerpt: as §1

A further data set deals with KM12. Description: NCI-60 growth inhibition, KM12. The data set is classed as cell-based, human.
Excerpt: as §1

Data set [2] can be described thus: 5-FU release study with H2O2 (LC/MS). The data set is classed as physicochemical. Particulars: for activation by H2O2 to release 5-FU: prodrug 100 μM, H2O2 5 equiv, 30% DMSO in PBS, 37° C., RP-UPLC-MS. The protocol: FIGS. 1A and 1B illustrate the release of 5-FU from compounds 1a-1b. Incubation of prodrugs 1a-1b (100 μM) was carried out in the presence of 5 equivalent of H2O2: (FIG. 1A) compound 1a and (FIG. 1B) compound 1b. The conversion of prodrugs 1a-1b and release of 5-FU was monitored. The data represent mean±SD of triplicates.
Release of 5-FU from the prodrugs was performed at 37° C. in 30% DMSO/Phosphate Buffered saline (PBS). The compounds were co-incubated at 100 μM together with hydrogen peroxide (H2O2) in triplicates. At each time point, aliquots were taken from the solution and diluted in acetonitrile for quantitation in the LC/MS. LC/MS Analysis: samples were analyzed using Xevo TQ-XS Triple Quadrupole Mass Spectrometry (Waters Corp, Milford, Mass.). The column used was a Cortecs C18+2.7 μm 2.1×75 mm column. A 3-min gradient elution with 0.5 mL/min flow rate was used for the samples. Running gradient: 95% mobile phase A over 1.2 min, 95% mobile phase B over 1.2 min, and 95% A 0.6 min, with elution at 1.64 min for the compounds. The ion transitions monitored for the compounds were 5-FU (129.0>40.1) 1a (345.2>86.0), and 1b (263.1>176.1).
Compounds 1a-1b were incubated in a mixture of DMSO in PBS (30%) with the addition of H2O2 (5 equiv) at 37° C. The conversion of prodrugs 1a-1b and the production of 5-FU were followed using RP-UPLC-MS.

Consider `CC1(C)OB(c2ccc(Cn3cc(F)c(=O)[nH]c3=O)cc2)OC1(C)C` [Compound 1a, 5-Fluoro-1-(4-(4,4,5,5-tetramethyl-1,3,2-dioxaborolan-2-yl)benzyl)pyrimidine-2,4(1H,3H)-dione], for which the inhibition (commonly the change of the read-out against control, counted positive when it falls) at 50 µM in the data set with SF-539 (Homo sapiens, CNS Cancer SF-539, 48 h) amounted to 39%; in the data set on HOP-62 (Homo sapiens, Non-Small Cell lung Cancer HOP-62, 48 h), 36%; in the data set with CAKI-1 (Homo sapiens, Renal Cancer CAKI-1, 48 h), 25%; with HCC-2998 (Homo sapiens, Colon Cancer HCC-2998, 48 h) it was 26%; with A498 (Homo sapiens, Renal Cancer A498, 48 h), 74%; in the data set on NCI/ADR-RES (Homo sapiens), 6%. Further, the inhibition at 50 µM in the data set with UACC-257 (Homo sapiens, Melanoma UACC-257, 48 h) was found to be 33%; with SNB-19 (Homo sapiens, CNS Cancer SNB-19, 48 h) it was 29%; in the data set on DU-145 (Homo sapiens, Prostate Cancer DU-145, 48 h), 16%; with MDA-MB-231/ATCC (Homo sapiens) it was 14%; in the data set on TK-10 (Homo sapiens, Renal Cancer TK-10, 48 h), 21%; in the data set with IGROV1 (Homo sapiens, IGROV-1, Ovarian Cancer IGROV1, 48 h), 56%. Also, the inhibition at 50 µM in the data set on U251 (Homo sapiens, U-251, CNS Cancer U251, 48 h) is 17%; with T-47D (Homo sapiens, T47D), 51%; in the data set on COLO 205 (Homo sapiens, Colon Cancer COLO 205, 48 h), 64%; with KM12 (Homo sapiens, Colon Cancer KM12, 48 h), 74%. Further, the “anticancer effects upon pretreatment of NAC” value in [1] is “decreased significantly”. Moreover, the “activation by H2O2 to release 5-FU” value in data set [2] was “activated efficiently”. In addition, the “hydrolysis of boronic ester to boronic acid 1b” value in data set [2] (under the release assay conditions (30% DMSO in PBS, H2O2 5 equiv, 37° C.)) is given as “hydrolyzes rapidly”.

With `O=c1[nH]c(=O)n(Cc2ccc(B(O)O)cc2)cc1F` [Compound 1b, (4-((5-Fluoro-2,4-dioxo-3,4-dihydropyrimidin-I(2H)-yl)methyl)phenyl)boronic acid], the “Growth Inhibition (%)” value with SF-539 (CNS Cancer SF-539, 50 μM, 48 h) stood at 13%; in the data set on HOP-62 (Non-Small Cell lung Cancer HOP-62, 50 μM, 48 h), 10%; in the data set on CAKI-1 (Renal Cancer CAKI-1, 50 μM, 48 h), 12%; with HCC-2998 (Colon Cancer HCC-2998, 50 μM, 48 h), 5%; in the data set with A498 (Renal Cancer A498, 50 μM, 48 h), 31%; in the data set with NCI/ADR-RES (50 μM) it was 0%. Moreover, the “Growth Inhibition (%)” value is 14% with UACC-257 (Melanoma UACC-257, 50 μM, 48 h); 11% in the data set with SNB-19 (CNS Cancer SNB-19, 50 μM, 48 h); −6% in the data set with DU-145 (Prostate Cancer DU-145, 50 μM, 48 h); 13% in the data set on MDA-MB-231/ATCC (50 μM); 20% in the data set on TK-10 (Renal Cancer TK-10, 50 μM, 48 h); 15% in the data set on IGROV1 (Ovarian Cancer IGROV1, 50 μM, 48 h). For the same compound, the “Growth Inhibition (%)” value in the data set on U251 (CNS Cancer U251, 50 μM, 48 h) stood at 4%; with T-47D (50 μM), 5%; with COLO 205 (Colon Cancer COLO 205, 50 μM, 48 h), 8%; in the data set with KM12 (Colon Cancer KM12, 50 μM, 48 h), 20%. Also, the “anticancer effects upon pretreatment of NAC” value in data set [1] is listed as “decreased significantly”. In data set [2], the “activation by H2O2 to release 5-FU” value is listed as “activated efficiently”.
